In patent publication EP0549264A1, “Purified para-nitrobenzyl esterase from bacillus” (OKLAHOMA STATE UNIVERSITY, priority 1991, dated 1993):
Like-named read-outs stand apart in the source and are kept apart here.

Legend:
[1] = biological target: T1, PNB esterase (Bacillus subtilis, UniProt P37967); experiment: PNB esterase activity assay (HPLC, method of Example 1D), effect of inhibitors; assay type: biochemical
T1 construct: A culture of Bacillus subtilis NRRL B-8079 was harvested and frozen by conventional methods; made in house; host or cells: Bacillus subtilis NRRL B-8079 (natural producer; enzyme purified from cell-free extract)
T1 sequence (P37967 1-489): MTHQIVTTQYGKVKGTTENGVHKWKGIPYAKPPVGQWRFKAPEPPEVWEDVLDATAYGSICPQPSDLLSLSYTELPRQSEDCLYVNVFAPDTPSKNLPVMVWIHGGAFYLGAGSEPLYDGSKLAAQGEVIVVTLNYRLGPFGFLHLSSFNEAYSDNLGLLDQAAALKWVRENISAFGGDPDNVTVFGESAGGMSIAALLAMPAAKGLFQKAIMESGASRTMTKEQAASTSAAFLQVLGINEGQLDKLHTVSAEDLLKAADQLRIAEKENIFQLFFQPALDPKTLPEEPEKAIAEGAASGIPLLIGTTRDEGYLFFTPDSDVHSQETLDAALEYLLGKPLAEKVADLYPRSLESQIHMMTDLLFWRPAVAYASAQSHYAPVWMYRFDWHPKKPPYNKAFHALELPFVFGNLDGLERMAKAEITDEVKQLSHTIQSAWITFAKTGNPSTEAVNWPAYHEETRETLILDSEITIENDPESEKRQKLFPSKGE

[2] = biological target: T1, PNB esterase; experiment: Substrate specificity comparison of native and recombinant PNB esterase; assay type: biochemical; conditions: both native enzyme and enzyme from recombinant Escherichia coli
Description: A 1 ml reaction mixture containing 5 µmoles Bis-Tris-Propane-HCl, pH 6.5, 0.5 µmole substrate (loracarbef PNB ester, or cefaclor PNB ester), and appropriate amounts of enzyme solution was incubated at 37°C in a constant-temperature shaker for 30 minutes The reaction was stopped by the addition of an equal volume of acetonitrile. The mixture was then centrifuged to remove the protein and the supernatant solution was analyzed by high performance liquid chromatography (HPLC) for product formation and substrate disappearance. The HPLC was performed in a C-18 reverse-phase column (Nova-Pak C₁₈ radial-pak cartridge (8 X 100 mm), Millipore Bedford, MA) with a linear gradient formed by Buffer A containing 80% of 1 mM Triethylamine-HCl, pH 2.5 and 20% methanol and Buffer B containing methanol, at a flow rate of 1 ml/minutes
The HPLC system used was a Varian HPLC system including a Vista 5560 unit (Varian Associates, Sugar Land TX) and a model 230-401 auto-sampling injector (Gilson Medical Electronics, Middleton, WI.). The PNB esterase activity was determined by monitoring product formation at 254 nm.
The PNB esterase purified from recombinant Escherichia coli was compared to the native enzyme by molecular weight, Western blot analysis, and substrate specificity.
Measurements of molecular weight gave values of 54,000 for enzyme from the two sources, and identical precipitin bands were obtained when the two enzyme preparations were tested using antibody prepared against native purified esterase. Both enzymes hydrolyzed cefaclor PNB ester, cefaclor nucleus PNB ester, loracarbef PNB ester, and loracarbef nucleus PNB ester. The native PNB esterase and the corresponding PNB esterase produced in recombinant E. coli strains appear functionally identical and structually the same at macroscale.

Molecule	inhibition at 1000 µM [1]	PNB esterase activity inhibited (in words) [1]	Inhibition (%) [1]	other results
OCCS [2-Mercaptoethanol]	0%			
O=C(O)c1cc(SSc2ccc([N+](=O)[O-])c(C(=O)O)c2)ccc1[N+](=O)[O-] [5,5'-Dithiobis(2-nitrobenzoic acid)]	69%			PNB esterase activity inhibited (in words) ([1]; summary in words of Table 2, compounds at 1 mM): moderately inhibited
C(=NC1CCCCC1)=NC1CCCCC1 [Dicyclohexyl carbodiimide]	78%	moderately inhibited		
CCOC(=O)OC(=O)OCC [Diethylpyrocarbonate]	100%	strongly inhibited		
O=C(O)CN(CCN(CC(=O)O)CC(=O)O)CC(=O)O [EDTA, ethylenediamine tetraacetic acid]	0%			
O=S(=O)([O-])[O-].[Fe+2] [FeSO4]			100%	
[Cl][Hg][Cl] [HgCl₂]		moderately inhibited	100%	
O=C(NC(Cc1ccccc1)C(=O)Nc1ccc2ccccc2c1)c1ccccc1 (centres unmarked) [N-benzoyl phenylalanine naptylamide]		moderately inhibited	66%	
O=CC(=O)c1ccccc1 [Phenylglyoxal]	91%	moderately inhibited		
O=S(=O)(F)Cc1ccccc1 [Phenylmethylsulfonylfluoride]		strongly inhibited		
CC(=O)[O-].CC(=O)[O-].[Zn+2] [Zn(OCOCH₃)₂]			97%	
N[C@@H](C(=O)N[C@@H]1C(=O)N2C(C(=O)OCc3ccc([N+](=O)[O-])cc3)=C(Cl)CS[C@H]12)c1ccccc1 [cefaclor PNB ester]				hydrolysis by PNB esterase [2]: hydrolyzed
N[C@@H]1C(=O)N2C(C(=O)OCc3ccc([N+](=O)[O-])cc3)=C(Cl)CS[C@H]12 [cefaclor nucleus PNB ester]				hydrolysis by PNB esterase [2]: hydrolyzed
N[C@@H](C(=O)N[C@@H]1C(=O)N2C(C(=O)OCc3ccc([N+](=O)[O-])cc3)=C(Cl)CC[C@H]12)c1ccccc1 [loracarbef PNB ester]				hydrolysis by PNB esterase [2]: hydrolyzed
N[C@@H]1C(=O)N2C(C(=O)OCc3ccc([N+](=O)[O-])cc3)=C(Cl)CC[C@H]12 [loracarbef nucleus PNB ester]				hydrolysis by PNB esterase [2]: hydrolyzed
Diethyl p-nitrophenylphosphate		strongly inhibited	100%	
